Source: US9290788B2, “Device for determining or studying the state of stimulation of the natural defences of plants or portions of plants” (Institut National De La Recherche Agronomique, priority 2010, dated 2016)
Several values for one entry are separate records, joined by “and”; a condition that tells them apart may be missing. Equal entries are not always repeated.

What was measured:
[1] = test system: fire blight (Erwinia amylovora); conditions: Test 1, controlled conditions
[2] = test system: 28 target genes (defense genes) in apple tree leaves; assay: Test 1: relative expression of the 28 defense genes (qPCR, ΔΔCt) in apple tree seedling leaves subjected to NDS treatments and abiotic stresses; type: in vivo, apple tree seedlings (Golden Delicious); conditions: for effect on the modulation of target gene expression (in words): Test 1
[3] = test system: 28 target genes (defense genes) in apple tree leaves; assay: Test 2: analysis of defenses, expression of the 28 genes (qPCR) in apple tree seedlings sprayed with 10 NDS candidates, with or without hydrogen peroxide; type: in vivo, apple tree seedlings (Golden Delicious)
[4] = +H2O2, J2, relative to water control
[5] = +H2O2, J3, relative to water control
[6] = vs water control, +H2O2 (sprayed 24 hours after treatment), J2
[7] = vs water control, +H2O2 (sprayed 24 hours after treatment), J3
[8] = −H2O2, J2, relative to water control
[9] = −H2O2, J3, relative to water control
[10] = abiotic stress, J2, relative to water control
[11] = abiotic stress, J3, relative to water control
[12] = vs water control, abiotic stress treatment, J2

CC(N)CC(=O)O (racemic) [Baba, DL-β-amino-n-butyric acid]
protection against fire blight [1]: no protective effect against fire blight | Relative expression APOX (log base 2) [2, 4]: 1.49 and 1.76 | Relative expression JAR (log base 2) [2, 4]: −0.44 and −0.16 | Relative expression POX (log base 2) [2, 4]: 2.20 and 2.28 | Relative expression CAD (log base 2) [2, 5]: −0.15 and −0.29 | Relative expression CalS (log base 2) [2, 5]: 2.10 and 1.88 | direct stimulator versus potentiator: gene expression after additional H2O2 treatment ([2]; H2O2 sprayed 24 hours after treatment): triggers the expression of some genes (POX, Pect, for example) | effect on the modulation of target gene expression (in words) [2]: little effect on the modulations of genes | Relative expression of ANS [2, 6]: 1.41 log2 and 2.12 log2 | Relative expression of PAL [2, 6]: 0.29 log2 and 0.55 log2 | Relative expression of PR-15 [2, 6]: 0.84 log2 and 0.71 log2 | Relative expression of PR-1 [2, 7]: 2.71 log2 and 1.77 log2 | Relative expression of PR-5 [2, 7]: 1.91 log2 and 1.34 log2 | Relative expression of PR-15 [2, 7]: 1.46 log2 and 2.06 log2 | Relative expression of ANS ([2]; vs water control, −H2O2, J2): 1.28 log2 and 1.53 log2 | Relative expression of PAL ([2]; vs water control, −H2O2, J2): 0.42 log2 and 0.27 log2 | Relative expression of PAL ([2]; vs water control, −H2O2, J3): 0.20 log2 and 0.29 log2 | Relative expression CHS (log base 2) [2, 8]: 0.27 and 0.29 | Relative expression DFR (log base 2) [2, 8]: 0.64 and 0.93 | Relative expression GST (log base 2) [2, 8]: −0.05 and −0.34 | Relative expression CHS (log base 2) [2, 9]: 0.19 and 0.31 | Relative expression FPPS (log base 2) [2, 9]: 0.46 and 0.56

OO [H2O2, hydrogen peroxide]
ANS expression ([3]; J2 + H2O2): −0.63 | CHS expression ([3]; J2 + H2O2): −0.80 | DFR expression ([3]; J2 + H2O2): −0.65 | FPPS expression ([3]; J2 + H2O2): 0.06 | HMGR expression ([3]; J2 + H2O2): 1.05 | PAL expression ([3]; J2 + H2O2): −0.56 | PPO expression ([3]; J2 + H2O2): 1.20 | PR1 expression ([3]; J2 + H2O2): 0.85 | PR2 expression ([3]; J2 + H2O2): 3.69 | PR4 expression ([3]; J2 + H2O2): 3.89 | PR5 expression ([3]; J2 + H2O2): 0.91 | PR8 expression ([3]; J2 + H2O2): 2.12 | PR14 expression ([3]; J2 + H2O2): 1.32 | PR15 expression ([3]; J2 + H2O2): −0.26 | ANS expression ([3]; J3 + H2O2): −0.49 | CHS expression ([3]; J3 + H2O2): −0.75 | DFR expression ([3]; J3 + H2O2): −0.36 | FPPS expression ([3]; J3 + H2O2): 0.08 | HMGR expression ([3]; J3 + H2O2): 0.14 | PAL expression ([3]; J3 + H2O2): −0.57 | PPO expression ([3]; J3 + H2O2): 0.71 | PR1 expression ([3]; J3 + H2O2): 1.41 | PR2 expression ([3]; J3 + H2O2): 4.05 | PR4 expression ([3]; J3 + H2O2): 2.59 | PR5 expression ([3]; J3 + H2O2): 1.73 | PR8 expression ([3]; J3 + H2O2): 1.73 | PR14 expression ([3]; J3 + H2O2): 3.29 | PR15 expression ([3]; J3 + H2O2): 1.57 | effect on the modulation of target gene expression (in words) [2]: only slightly modulate the target gene expressions | Relative expression APOX (log base 2) [2, 10]: 0.41 and 0.38 | Relative expression DFR (log base 2) [2, 10]: 0.50 and 0.80 | Relative expression EIN3 (log base 2) [2, 10]: 1.44 and 1.53 | Relative expression POX (log base 2) [2, 10]: 1.07 and 1.06 | Relative expression WRKY (log base 2) [2, 10]: −0.04 and −0.12 | Relative expression CAD (log base 2) [2, 11]: −0.72 and −0.54 | Relative expression GST (log base 2) [2, 11]: 0.33 and 0.40 | Relative expression LOX2 (log base 2) [2, 11]: 0.16 and 0.42 | Relative expression of PR-2 [2, 12]: 4.75 log2 and 3.92 log2 | Relative expression of PR-4 [2, 12]: 2.53 log2 and 4.27 log2 | Relative expression of PR-8 [2, 12]: 0.83 log2 and 0.79 log2 | Relative expression of PR-2 ([2]; vs water control, abiotic stress treatment, J3): 2.36 log2 and 3.38 log2
